Source: US9145407B2, “Sulfonamide compounds” (Pfizer Limited, priority 2010, dated 2015)
Where a name gives a salt, the structure may show the parent alone.

These molecules were tested against T1, Nav1.7 (or SCN9A) channel (Homo sapiens, UniProt Q15858) (assay: Nav1.7 (hSCN9A) whole-cell electrophysiology, PatchXpress platform). Conditions: HEK cells stably expressing hSCN9A, held at V1/2 of inactivation, calculated from single point % inhibition, read-out: Nav1.7 EIC50 (estimated IC-50).
T1 construct: expressed in transfected cells; host or cells: HEK cells, stably transfected, G-418 selected
Type: cell-based
Method: The ability of the compounds of list (I) to block the Nav1.7 (or SCN9A) channel was measured using the assay described below.
Human Embryonic Kidney (HEK) cells were transfected with an hSCN9A construct using lipofectamine reagent (Invitrogen), using standard techniques. Cells stably expressing the hSCN9A constructs were identified by their resistance to G-418 (400 μg/ml). Clones were screened for expression using the whole-cell voltage-clamp technique.
HEK cells stably transfected with hSCN9A were maintained in DMEM medium supplemented with 10% heat-inactivated fetal bovine serum and 400 μg/ml G-418 in an incubator at 37° C. with a humidified atmosphere of 10% CO2. For HTS, cells were harvested from flasks by trypsinization and replated in an appropriate multi-well plate (typically 96 or 384 wells/plate) such that confluence would be achieved within 24 hours of plating. For electrophysiological studies, cells were removed from the culture flask by brief trypsinization and re-plated at low density onto glass cover slips. Cells were typically used for electrophysiological experiments within 24 to 72 hours after plating.
Cover slips containing HEK cells expressing hSCN9A were placed in a bath on the stage of an inverted microscope and perfused (approximately 1 ml/minutes) with extracellular solution of the following composition: 138 mM NaCl, 2 mM CaCl2, 5.4 mM KCl, 1 mM MgCl2, 10 mM glucose, and 10 mM HEPES, pH 7.4, with NaOH. […] The osmolarity of the extracellular and intracellular solutions was 300 mOsm/kg and 295 mOsm/kg, respectively. All recordings were made at room temperature (22-24° C.) using AXOPATCH 200B amplifiers and PCLAMP software (Axon Instruments, Burlingame, Calif.).
hSCN9A currents in HEK cells were measured using the whole-cell configuration of the patch-clamp technique (Hamill et al., 1981). Uncompensated series resistance was typically 2 to 5 mega ohms and >85% series resistance compensation was routinely achieved. As a result, voltage errors were negligible and no correction was applied. Current records were acquired at 20 to 50 KHz and filtered at 5 to 10 KHz.
HEK cells stably transfected with hSCN9A were viewed under Hoffman contrast optics and placed in front of an array of flow pipes emitting either control or compound-containing extracellular solutions. All compounds were dissolved in dimethyl sulfoxide to make 10 mM stock solutions, which were then diluted into extracellular solution to attain the final concentrations desired. […] The voltage-dependence of inactivation was determined by applying a series of depolarizing prepulses (8 sec long in 10 mV increments) from a negative holding potential. The voltage was then immediately stepped to 0 mV to assess the magnitude of the sodium current. Currents elicited at 0 mV were plotted as a function of prepulse potential to allow estimation of the voltage at which 50% of the channels were inactivated (midpoint of inactivation or V1/2). Compounds were tested for their ability to inhibit hSCN9A sodium channels by activating the channel with a 20 msec voltage step to 0 mV following an 8 second conditioning prepulse to the empirically determined V1/2. Compound effect (% inhibition) was determined by difference in current amplitude before and after application of test compounds. For ease of comparison, “estimated IC-50” (EIC50) values were calculated from single point electrophysiology data by the following equation, (tested concentration, uM)×(100−% inhibition/% inhibition). Inhibition values <20% and >80% were excluded from the calculation.
Electrophysiological assays were conducted with PatchXpress 7000 hardware and associated software (Molecular Devices Corp). All assay buffers and solutions were identical to those used in conventional whole-cell voltage clamp experiments described above. hSCN9A cells were grown as above to 50%-80% confluency and harvested by trypsinization. […]

T1 sequence (Q15858 whole entry): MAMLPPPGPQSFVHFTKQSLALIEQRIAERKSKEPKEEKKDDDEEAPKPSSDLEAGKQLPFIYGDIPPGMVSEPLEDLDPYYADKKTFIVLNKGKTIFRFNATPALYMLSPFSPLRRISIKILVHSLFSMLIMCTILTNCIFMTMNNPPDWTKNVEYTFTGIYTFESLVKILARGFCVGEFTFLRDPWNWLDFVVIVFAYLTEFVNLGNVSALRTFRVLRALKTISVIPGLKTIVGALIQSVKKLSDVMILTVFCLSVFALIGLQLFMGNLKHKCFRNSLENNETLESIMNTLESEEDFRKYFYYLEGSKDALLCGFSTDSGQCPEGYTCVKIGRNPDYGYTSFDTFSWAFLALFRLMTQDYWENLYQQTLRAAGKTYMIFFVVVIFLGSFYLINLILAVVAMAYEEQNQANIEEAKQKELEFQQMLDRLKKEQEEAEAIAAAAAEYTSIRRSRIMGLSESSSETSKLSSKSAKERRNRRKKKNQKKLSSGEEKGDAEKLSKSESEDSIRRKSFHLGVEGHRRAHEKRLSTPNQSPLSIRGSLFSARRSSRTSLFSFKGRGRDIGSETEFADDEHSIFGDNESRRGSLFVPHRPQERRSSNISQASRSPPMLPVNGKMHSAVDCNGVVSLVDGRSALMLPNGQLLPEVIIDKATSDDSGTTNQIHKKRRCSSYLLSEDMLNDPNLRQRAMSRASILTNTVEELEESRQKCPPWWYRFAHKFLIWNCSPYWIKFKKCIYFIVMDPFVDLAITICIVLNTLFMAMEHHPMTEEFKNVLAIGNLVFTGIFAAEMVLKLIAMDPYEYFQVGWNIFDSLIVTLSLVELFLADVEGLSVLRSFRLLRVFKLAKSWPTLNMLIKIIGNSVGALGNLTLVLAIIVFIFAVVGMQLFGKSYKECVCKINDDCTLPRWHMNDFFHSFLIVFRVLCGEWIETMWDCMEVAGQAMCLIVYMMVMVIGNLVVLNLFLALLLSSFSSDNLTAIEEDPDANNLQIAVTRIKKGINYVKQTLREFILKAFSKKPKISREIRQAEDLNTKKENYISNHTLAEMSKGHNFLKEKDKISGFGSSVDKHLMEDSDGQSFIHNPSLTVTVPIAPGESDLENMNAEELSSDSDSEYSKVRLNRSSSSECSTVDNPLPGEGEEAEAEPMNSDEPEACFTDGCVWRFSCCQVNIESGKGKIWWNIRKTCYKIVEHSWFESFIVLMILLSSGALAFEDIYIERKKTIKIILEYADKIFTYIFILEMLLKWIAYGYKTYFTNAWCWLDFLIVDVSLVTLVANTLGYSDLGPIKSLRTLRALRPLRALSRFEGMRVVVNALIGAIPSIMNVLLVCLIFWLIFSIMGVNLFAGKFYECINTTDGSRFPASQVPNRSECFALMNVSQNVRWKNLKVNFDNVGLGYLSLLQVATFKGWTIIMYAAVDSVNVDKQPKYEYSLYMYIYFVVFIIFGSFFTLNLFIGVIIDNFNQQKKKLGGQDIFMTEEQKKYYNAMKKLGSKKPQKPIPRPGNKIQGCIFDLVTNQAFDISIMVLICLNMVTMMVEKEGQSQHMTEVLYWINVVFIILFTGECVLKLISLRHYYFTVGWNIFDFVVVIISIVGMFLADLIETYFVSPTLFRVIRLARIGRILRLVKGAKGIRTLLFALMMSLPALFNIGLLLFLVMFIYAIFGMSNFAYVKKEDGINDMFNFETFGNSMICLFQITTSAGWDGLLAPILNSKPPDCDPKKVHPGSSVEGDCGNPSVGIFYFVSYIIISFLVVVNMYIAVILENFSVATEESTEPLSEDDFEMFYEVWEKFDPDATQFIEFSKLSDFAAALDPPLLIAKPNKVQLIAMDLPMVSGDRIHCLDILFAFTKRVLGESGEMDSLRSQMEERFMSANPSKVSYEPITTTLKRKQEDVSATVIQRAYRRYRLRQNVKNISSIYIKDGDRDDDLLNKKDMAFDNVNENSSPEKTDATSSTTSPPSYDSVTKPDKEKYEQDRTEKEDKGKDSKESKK

| IC50 [nM] | SMILES |
| --- | --- |
| 2.6 | CN1CC(n2nccc2-c2cc(C(F)(F)F)ccc2Oc2cc(F)c(S(=O)(=O)Nc3nncs3)cc2Cl)C1 [Example 14, 5-Chloro-2-fluoro-4-{4-trifluoromethyl-2-[1-(1-methylazetidin-3-yl)-1H-pyrazol-5-yl]phenoxy}-N-1,3,4-thiadiazol-ylbenzenesulfonamide] |
| 11.6 | Cc1nnccc1-c1cc(C(F)(F)F)ccc1Oc1ccc(S(=O)(=O)Nc2ncns2)cc1C#N [Example 15, 3-Cyano-4-[2-(3-methylpyridazin-4-yl)-4-(trifluoromethyl)phenoxy]-N-1,2,4-thiadiazol-5-ylbenzenesulfonamide] |
| 6.7 | O=S(=O)(Nc1cscn1)c1cc(Cl)c(Oc2ccc(Cl)cc2-c2ccnc(N3CCNCC3)n2)cc1F [Example 1, 5-Chloro-4-[4-chloro-2-(2-piperazin-1-ylpyrimidin-4-yl)phenoxy]-2-fluoro-N-1,3-thiazol-4-ylbenzenesulfonamide trifluoroacetate] |
| 8.5 | Nc1cc(-c2cc(C(F)(F)F)ccc2Oc2cc(F)c(S(=O)(=O)Nc3ncc(F)cn3)cc2Cl)ccn1 [Example 6, 4-[2-(2-Aminopyridin-4-yl)-4-(trifluoromethyl)phenoxy]-5-chloro-2-fluoro-N-(5-fluoropyrimidin-2-yl)benzenesulfonamide 4-methylbenzenesulfonate] |
| 11.8 | Nc1cc(-c2cc(Cl)ccc2Oc2cc(F)c(S(=O)(=O)Nc3ncc(F)cn3)cc2Cl)ccn1 [Example 5, 4-[2-(2-Aminopyridin-4-yl)-4-chlorophenoxy]-5-chloro-2-fluoro-N-(5-fluoropyrimidin-2-yl)benzenesulfonamide dihydrochloride] |
| 5 | O=S(=O)(Nc1nncs1)c1cc(Cl)c(Oc2ccc(Cl)cc2-c2ccnc(N3CCNCC3)n2)cc1F [Example 2, 5-Chloro-4-[4-chloro-2-(2-piperazin-1-ylpyrimidin-4-yl)phenoxy]-2-fluoro-N-1,3,4-thiadiazol-2-ylbenzenesulfonamide trifluoroacetate] |
| 9.9 | Nc1n[nH]cc1-c1cc(OC(F)(F)F)ccc1Oc1cc(F)c(S(=O)(=O)Nc2cscn2)cc1Cl [Example 8, 4-[2-(3-Amino-1H-pyrazol-4-yl)-4-(trifluoromethoxy)phenoxy]-5-chloro-2-fluoro-N-1,3-thiazol-4-ylbenzenesulfonamide dihydrochloride] |
| 10.8 | Nc1cc(-c2cc(Cl)ccc2Oc2cc(F)c(S(=O)(=O)Nc3cscn3)cc2Cl)ccn1 [Example 10, 4-[2-(2-Aminopyridin-4-yl)-4-chlorophenoxy]-5-chloro-2-fluoro-N-1,3-thiazol-4-ylbenzenesulfonamide trifluoroacetate] |
| 3.2 | Cc1cc(S(=O)(=O)Nc2ncns2)ccc1Oc1ccc(C(F)(F)F)cc1-c1ccnnc1 [Example 16, 3-Methyl-4-[2-pyridazin-4-yl-4-(trifluoromethyl)phenoxy]-N-1,2,4-thiadiazol-5-ylbenzenesulfonamide] |
| 14.6 | O=S(=O)(Nc1cscn1)c1cc(Cl)c(Oc2ccc(OC(F)(F)F)cc2-c2ccnnc2)cc1F [Example 12, 5-Chloro-2-fluoro-4-[2-pyridazin-4-yl-4-(trifluoromethoxy)phenoxy]-N-1,3-thiazol-4-ylbenzenesulfonamide trifluoroacetate] |
| 24 | Nc1cc(-c2cc(Cl)ccc2Oc2ccc(S(=O)(=O)Nc3nncs3)cc2Cl)ccn1 [Example 9, 4-[2-(2-Aminopyridin-4-yl)-4-chlorophenoxy]-3-chloro-N-1,3,4-thiadiazol-2-ylbenzenesulfonamide trifluoroacetate] |
| 18 | O=S(=O)(Nc1cscn1)c1cc(Cl)c(Oc2cc(F)c(C(F)(F)F)cc2-c2ccnnc2)cc1F [Example 3, 5-Chloro-2-fluoro-4-[5-fluoro-2-pyridazin-4-yl-4-(trifluoromethyl)phenoxy]-N-1,3-thiazol-4-ylbenzenesulfonamide] |
| 10 | O=S(=O)(Nc1cscn1)c1cc(F)c(Oc2ccc(Cl)cc2-c2ccnc(N3CCNCC3)n2)cc1F [Example 17, 4-[4-chloro-2-(2-piperazin-1-ylpyrimidin-4-yl)phenoxy]2,5-difluoro-N-1,3-thiazol-4-ylbenzenesulfonamide trifluoroacetate] |
| 27.5 | O=S(=O)(Nc1cscn1)c1cc(Cl)c(Oc2cc(C(F)(F)F)c(F)cc2-c2ccnnc2)cc1F [Example 4, 5-Chloro-2-fluoro-4-[4-fluoro-2-pyridazin-4-yl-5-(trifluoromethyl)phenoxy]-N-1,3-thiazol-4-ylbenzenesulfonamide bis(trifluoroacetate)] |
| 14.7 | Nc1cc(-c2cc(F)ccc2Oc2cc(F)c(S(=O)(=O)Nc3cscn3)cc2Cl)ccn1 [Example 7, 4-[2-(2-Aminopyridin-4-yl)-4-fluorophenoxy]-5-chloro-2-fluoro-N-1,3-thiazol-4-ylbenzenesulfonamide trifluoroacetate] |
| 16.6 | Nc1[nH]ncc1-c1cc(F)ccc1Oc1cc(F)c(S(=O)(=O)Nc2cscn2)cc1Cl [Example 11, 4-[2-(5-Amino-1H-pyrazol-4-yl)-4-fluorophenoxy]-5-chloro-2-fluoro-N-1,3-thiazol-4-ylbenzenesulfonamide trifluoroacetate] |

| SMILES | IC50 [nM] |
| --- | --- |
| O=S(=O)(Nc1nncs1)c1cc(Cl)c(Oc2ccc(C(F)(F)F)cc2-c2ccnn2C2CNC2)cc1F [Example 13] | 1.1 |
